Where “and” joins values, the source holds several entries; their conditions need not be identical. Equal entries are not always repeated. Entries after “also recorded” stand apart in the source; their conditions may differ. Where two headings read alike, the source gives them in different places.
Tests used:
[1] = Quartz crystal microbalance weight loss of amine-treated iron surface in unstirred 0.5 M sodium sulfate solution; settings: "open" pH 5.9 sulfate solution
[2] = as above; settings: for percent wt. loss: amine-treated iron surface, 6.5 hours in unstirred 0.5 M Na2SO4 (pH=5.8); for time when wt. loss commenced: unstirred 0.5 M Na2SO4 (pH=5.8), 6.5 hours
Experimental: Weightloss measurements were performed by immersing the amine-coated iron surface in 0.5 M sodium sulfate solution (pH=5.8), and comparing the results observed with those obtained in case of an unprotected iron surface. From the results achieved, the following four major conclusions follow:
Table I below correlates the pKa of an amine with the percentage weight loss observed (using the quartz crystal microbalance technique) when the amine-treated iron surface was immersed for 6.5 hours in 0.5 M Na2SO4 solution (pH=5.8). See pKa prediction of organic acids and bases, D. D. Perrin, B. Dempsey, E. P. Serjeant (1981), Chapman and Hall. Physical methods in Heterocyclic Chemistry Vol. 1, A. A. Katritzky (1963), Academic Press.

[3] = QCM weight loss of amine-treated iron deposit in "open" pH 2.6 sulfate solution
[4] = cited from earlier work
[5] = EQCM amine adsorption on iron in passivating borate buffer (pH 8.4); settings: 15 mM amine
Excerpt: (§1) All the test solutions were buffered so that the effect of pH variation can be eliminated as much as possible. Thus, amine inhibition effectiveness is directly related to the strength of adsorption of the amine and its molecular structure, independent of pH effects. Here, borate buffer (pH 8.4) was used as passivating environment, whereas phosphate buffer (pH 5.7) was used as corrosive environment.
(§2) Plating of iron deposit (1 u thick) onto the polished gold crystal of the QCM electrode was accomplished from a 200 ml aqueous solution with the following composition:
(§3) For adsorption studies, the deposit was immersed in a passivating buffered solution (borate, pH 8.4, prepared as cited above) for 40 rain. for equilibration, after which 15 mM amine was added to the solution. The variation in frequency upon addition of the amine is quantitatively proportional to the amine adsorbed on the surface of the metal (Sauerbrey equation).
(§4) Deaerated test solutions (no dissolved O2) are prepared by purging the test solutions with argon for 2 hours before the tests and also during the tests.

[6] = EQCM amine inhibition of iron corrosion in corrosive phosphate buffer (pH 5.7); settings: 15 mM amine
Excerpt: as §1, §2
(§5) For the corrosion inhibition studies, the deposit was immersed in a corrosive buffer solution (phosphate, pH 5.7) for 40 min. for equilibration, and then 15 mM amine was added to the solution.
as §4

[7] = Weight loss of AISI 1018 steel coupons exposed to amine containing steam at 250° F.; settings: 250° F. steam, compared to plain steam
[8] = FTIR phase identification of iron oxides on steel samples exposed to amine containing steam; settings: for hematite in samples exposed for four hours (FTIR): four hours exposure; for exposure time at which hematite formation was observed (FTIR): steam with 3 ppm DBU or 5 ppm morpholine
Excerpt: The main purpose of this analysis was to observe the relative delay in magnetite transformation to hematite.
Amorphous crystals will produce a variation in peak width, and a slight shift on IR values (Cornell R., and Schwertmann U., 1996). […] Oxyhydroxides absorption hands are as follows: α-FeOOH is known to have a deep well defined pair of sharp peaks at 890 and 795 cm^−1, γ-FeOOH presents an enunciated and deep peak at 1018 cm^−1. β-FeOOH was not expected to be present in the experiment conditions.
FIGS. 42 and 43 show the FTIR spectra of iron oxides formed on steel samples exposed to steam containing 3 ppm of DBU.
FIGS. 46 and 47 show the FTIR spectra of iron oxides formed on steel samples exposed to steam containing 3 ppm of DMA.

[9] = QCM weight loss of DBU-treated iron deposit in Ar-purged pH 2.6 sulfate solution; settings: no dissolved oxygen, pH 2.6 sodium sulfate solution
Experimental: This conclusion was arrived at by examining the effect of DBU on the corrosion of iron in Ar-purged (no dissolved oxygen) pH 2.6 (acidic) sodium sulfate solution using the QCM technique, and comparing the results obtained with those recorded in “open” (oxygen containing) pH 2.6 and 5.9 solutions.
The apparatus for the experiments performed under purged conditions (as illustrated in FIG. 6) consists of a 500 ml Pyrex reaction vessel with a 4-necked cover. The reaction vessel and the cover are retained intact together during the experiment with the aid of a horse-shoe clamp. The QCM is inserted through the central neck, after plating the iron deposit onto the crystal. A pH electrode is inserted through one of the necks, and an inlet for Ar gas through the other. The fourth neck is stoppered when not used. The pH 2.6 sulfate solution is purged with Ar gas for 1 hour before exposure of the iron deposit (protected/unprotected) to the environment. See D. D. Perrin, B. Dempsey, E. P. Serjeant, pKa prediction of organic acids and bases, Chapman and Hall, 1981. A. A. Katritzky, Physical methods in Heterocyclic Chemistry Vol. 1, Academic Press, 1963. […]
The DBU-treated iron deposit was immersed in the Ar-purged pH 2.6 solution, and the weightloss and corresponding pH measurements recorded are plotted in FIGS. 7A and 7B. […]

[10] = EQCM aniline adsorption on nickel in borate buffer (pH 8.4); settings: borate buffer pH 8.4, aerated
Experimental: (§6) Plating of black nickel deposit (1 u thick) onto the polished gold crystal of the QCM electrode was accomplished from a 200 ml aqueous solution with the following composition:
as §3

[11] = EQCM aniline inhibition of nickel corrosion in phosphate buffer (pH 5.7); settings: phosphate buffer pH 5.7, aerated
Experimental: as §6, §5

[12] = borate buffer pH 8.4, deaerated
[13] = phosphate buffer pH 5.7, aerated
[14] = phosphate buffer pH 5.7, deaerated

| Structure (SMILES) | % wt. loss in pH 5.9 solution [1] | percent wt. loss [2] | time when wt. loss commenced [2] | effectiveness as corrosion inhibitor in acidic solution ([3]; "open" pH 2.6 solution) | adsorption on iron surface ([5]; borate buffer pH 8.4, aerated) | adsorption on iron surface [5, 12] | inhibition of iron corrosion [6, 13] | weight loss / corrosion rate of steel coupons in steam [7] | hematite in samples exposed for four hours (FTIR) [8] | % wt. loss in pH 2.6 solution ([3]; "open" pH 2.6 sulfate solution) | other results |
| --- | --- | --- | --- | --- | --- | --- | --- | --- | --- | --- | --- |
| COCCCN [3-methoxypropylamine] | 0% | 0% | no wt. loss | not effective inhibitors |  |  |  |  |  |  | % wt. loss in pH 2.6 solution ([3]; "open" pH 2.6 solution, over 60 minutes, probe failed after 60 minutes): 11.19% and 11.19 (probe failed % |
| NCCCCCO [5-amino-1-pentanol] | 4.106% | 4.106% | 90 min |  |  |  |  |  |  |  | pKa ([4]; Table II, 23° C.): 10.46 (23° C.) |
| C1CCC2=NCCCN2CC1 [DBU, 1,8-diazabicyclo[5.4.0]undec-7-ene] | 0% | 0% | no wt. loss | good corrosion inhibitors | forms a monolayer initially and then multilayers; also recorded: Adsorption | still can adsorb on the iron surface; also recorded: adsorption | stops corrosion; also recorded: inhibition | lowest corrosion rate | no hematite was detected | 7.2% | inhibition of iron corrosion [6, 14]: none of them can stop the iron corrosion; also recorded: no effect; exposure time at which hematite formation was observed (FTIR) [8]: 12 h; weightloss in Ar-purged pH 2.6 solution [9]: extensive weightless |
| CCCCNCCCC [N,N-dibutylamine] | 9.3% | 9.3% | 161 minutes, expt. |  |  |  |  |  |  |  | adsorption on iron surface ([5]; borate buffer pH 8.4, aerated, listed as DBA): adsorbs on iron surface; also recorded: adsorption; adsorption on iron surface ([5]; borate buffer pH 8.4, deaerated, listed as DBA): still can adsorb on the iron surface; also recorded: adsorption; pKa at 25° C. ([4]; Table I and text): 11.25; pKa at 25° C. ([4]; Table II): 11.25; inhibition of iron corrosion ([6]; phosphate buffer pH 5.7, aerated, listed as DBA): oxide growth is noted after its adsorption; also recorded: inhibition; inhibition of iron corrosion ([6]; phosphate buffer pH 5.7, deaerated, listed as DBA): none of them can stop the iron corrosion; also recorded: no effect |
| Nc1ccccc1 [aniline] |  |  |  |  | does not have any adsorption | no | no effect on inhibition |  |  |  | adsorption on nickel surface [10]: adsorption; adsorption on iron surface ([5]; borate buffer pH 8.4, aerated, listed as Aniline): no; inhibition of nickel corrosion [11]: inhibition |
| CC(C)NC(C)C [diisopropylamine] | 0% |  | no wt. loss | not effective inhibitors |  |  |  |  |  | 99.23% | percent wt. loss ([2]; listed as diisoproplyamine): 0% |
| CNC [dimethylamine] | 0.793% | 0.793% | 30 min | not effective inhibitors |  |  |  | oxidation rates less favorable | no hematite was detected | 98.4% |  |
| C1COCCN1 [morpholine] | 8.87% | 8.87% | 110 min |  | only weak adsorption; also recorded: little | still can adsorb on the iron surface; also recorded: little | slow and weak | oxidation rates less favorable | some hematite presence |  | inhibition of iron corrosion [6, 14]: none of them can stop the iron corrosion; exposure time at which hematite formation was observed (FTIR) [8]: started after two hours of exposure |
| C1CCNCC1 [piperidine] | 0.57% | 0.57% | 350 min | good corrosion inhibitors |  |  |  |  |  | 10.9% |  |
